The record followed here is patent EP3184514A1, “AUTOPHAGY INHIBITORS” (Deutsches Krebsforschungszentrum, priority 2015, dated 2017).

The subject of assay [1] is LC3B. As to the kind of experiment: cellular autophagy screening: LC3B spots by immunocytochemistry and automated confocal imaging. In kind it is cell-based. To be noted: Table 1-a; relative to negative DMSO control; 100 µM, 1 hour; n.e. means no effect. The protocol:
For screening purposes, cells were seeded in 384 well plates and left over night for attachment.
Afterwards, medium was removed and 4 % (w/v) paraformaldehyde (PFA) in PBS buffer was added to the cells for 20 minutes, incubated at room temperature. Cells were permeabilized with 0.1 % (v/v) Triton X-100 for 10 min at room temperature and washed with PBS. Cells were blocked with 3 % (w/v) bovine serum albumin (BSA) in PBS for 45 minutes at 37 °C and then incubated with anti-LC3B (PM036, MBL) or anti-p62 (PM045 or M162-3, MBL) primary antibody diluted in 0.3 % BSA (1:2000 or 1:500) for 1.5-2 hours at 37 °C. Cells were washed three times with PBS.
384 well plates were then analyzed with an automated confocal microscope Opera (PerkinElmer) enabling high throughput high content screening image analysis. […] A water immersion 60x objective was used for optical slicing and stacking (5x0.5 µm stacks). […] Signal was detected with a fast gated CCD camera. Acapella software (PerkinElmer) is an algorithm based high content imaging and analysis software used in multi-parametric multiplex assays. Acapella was used to follow cell viability (i.e. number of cells) and the number of LC3B and p62 spots per cell.
The LC3B protein is a ubiquitin-like protein that can be conjugated to phosphatidylethanolamine (PE) in the membrane of the incipient autophagosome. The nonlipidated and lipidated forms are usually referred to as LC3B-I and LC3B-II, respectively. […] Autophagic flux is often inferred on the basis of LC3B-II turnover, measured by western blot (WB) or immunofluorescence (IF) in the presence and absence of lysosomal degradation. […] Lysosomal degradation can be prevented e.g. through the use of compounds that neutralize the lysosomal pH such as Bafilomycin A1 (BafA1) or chloroquine (CQ). […] An additive or supra-additive effect in LC3B-II levels (WB) and LC3B-positive punctae numbers (IF) may indicate that the treatment enhances autophagic flux. […] This assay can be complemented by simultaneous monitoring of autophagosomal substrates or autophagosomal substrate receptors (e.g. SQSTM1/p62) by WB and/or IF. For example, an increase in LC3B-II levels in combination with the accumulation of SQSTM1/p62 is indicative of a blockage of the autophagy pathway at terminal stages.

Assay [2] relates to PANC1, HCT116, A549. As to the kind of experiment: LC3B and p62 spots in autophagy-dependent cancer cell lines. The class given is cell-based. To be noted: 1 hr, 100 µM; all three cell lines. The protocol:
For screening purposes, cells were seeded in 384 well plates and left over night for attachment. […] For controls, cells were treated with 250 nM torin and/or 100 nM BafA1 for 2 hours.
Afterwards, medium was removed and 4 % (w/v) paraformaldehyde (PFA) in PBS buffer was added to the cells for 20 minutes, incubated at room temperature. Cells were permeabilized with 0.1 % (v/v) Triton X-100 for 10 min at room temperature and washed with PBS. Cells were blocked with 3 % (w/v) bovine serum albumin (BSA) in PBS for 45 minutes at 37 °C and then incubated with anti-LC3B (PM036, MBL) or anti-p62 (PM045 or M162-3, MBL) primary antibody diluted in 0.3 % BSA (1:2000 or 1:500) for 1.5-2 hours at 37 °C. Cells were washed three times with PBS. Secondary Alexa Fluor 488 - labeled antibodies (A-11008, Invitrogen) were diluted in 0.3 % BSA (1:2500) and incubated on cells for 15 minutes at 37 °C. Cells were washed once with PBS, incubated with DRAQ5 (#4084, Cell Signaling) diluted in PBS (1:5000) for 10 minutes and washed three times with PBS.
384 well plates were then analyzed with an automated confocal microscope Opera (PerkinElmer) enabling high throughput high content screening image analysis. Confocal images were taken at the Institute of Biochemistry II, Goethe University Medical School, Theodor-Stern-Kai 7, 60590 Frankfurt am Main, Germany. […] Signal was detected with a fast gated CCD camera. […]

Assay [3] concerns the target T1, LC3B (Homo sapiens, UniProt Q9GZQ8).
T1 construct: made in house; host or cells: E. coli Rosetta (DE3)
The experiment in a line: AlphaScreen interaction displacement assay (GST-LC3B / biotin-LIRtide). The conditions noted are these: Table 1-a; n.e. means no effect; read-out: LC3B inhibition cell free IC50. The class given is binding. The protocol:
The AlphaScreen assay contained 50 mM Tris (pH 7.5), 100 mM NaCl, 0.01% Tween 20, 2 mM DTT, 1 % DMSO and 2-30 nM GST-LC3B and biotin-LIRtide 2-30 nM. The concentrations of GST-LC3B and biotin-LIRtide were experimentally chosen from a cross-titration assay exploring the different combinations of for each batch of protein used and when a new batch of buffer was prepared.
A gene encoding for human LC3B protein inserted in a pET-GST expression vector was used as a template. Rosetta (DE3) competent cells were transformed by started procedure, plated on an LB agar plate with ampicillin (100 µg/ml) and left overnight at 37 °C. Overnight culture was prepared from a single colony and shaken at 180 rpm at 37 °C. LB medium with ampicillin was inoculated with overnight culture (10 ml per 500 ml of LB) and shaken until the optical density at 600 nm (OD600) reached a value of approximately 0.6. Protein expression was then induced with 400 µM IPTG and further incubated for 4 hours. Bacterial culture was centrifuged for 20 minutes at 6000 rpm at 4 °C. The pellet was then resuspended in lysis buffer (20 mM TRIS-HCl pH 7.5, 10 mM EDTA, 5 mM EGTA, 150 mM NaCl, 0.5 % NP40, 1 % Triton X-100, 1 mM DTT, 2 mg/ml lysozyme, 0.05 U/µl benzonase, 1x protease inhibitor cocktail). Lysate was then stored at -20 °C over night. Sample was thawed in water bath and sonicated on ice (40 % amplitude, 30 seconds pulse/30 seconds pause cycle). Lysate was centrifuged at 10000xg at 4 °C for half an hour. Meanwhile, 500 µl of glutathione sepharose beads was equilibrated with lysis buffer and then added to the supernatant. The mixture was incubated and rotated at room temperature for 2 hours. After binding of the protein to the beads, beads were spun down at 500xg at 4 °C for 5 minutes. Pellet was then washed with cold wash buffer at least four times (20 mM Tris-HCl pH 7.5, 10 mM EDTA, 5 mM EGTA, 150 mM NaCl, 1 mM DTT), dried and stored in 5 % glycerol at 4 °C.

As usually defined, the IC50 is the concentration needed to halve the response being measured. With `Brc1ccc(CSC2=NCN(Cc3cccnc3)CN2)cc1` [Compound I-1, 6-((4-bromobenzyl)thio)-3-(pyridin-3-ylmethyl)-1,2,3,4-tetrahydro-1,3,5-triazine], the “LC3B inhibition cell based Fold increase of LC3B spots [DMSO control 1.0]” value in assay [1] is reported as 4.9. Moreover, the “number of LC3B and p62 spots” value in assay [2] is “increased”. The IC50 in assay [3] worked out at 6 µM.
